We go through 18 compounds from patent publication US7091351B2, “Vanadium compounds for treating cancer” (Parker Hughes Institute, priority 1998, dated 2006).

By IC50 is commonly meant the concentration at which inhibition is half-maximal. A lower IC50 goes with greater potency in that assay.

Common to all, as to type: cell-based, human
Assay [1] relates to Ntera-2 testicular cancer cells. In words: Flow cytometric TUNEL apoptosis assay, NTERA-2 cells. The conditions noted are these: 24 h, TUNEL-positive nuclei. On the procedure: (§1) A flow cytometric two-color terminal […] transferase (TdT)-mediated digoxigenin-uridine triphosphate (dUTP) nick-end labeling assay (TUNEL) was employed to detect apoptotic nuclei. Gavrieli, Y., Sherman, Y., Ben-Sasson, S. A. Identification of programmed cell death in situ via specific labeling of nuclear DNA fragmentation. J. Cell Biol., 119: 493–501, 1992. Exponentially growing cells (10^6/ml) were incubated in DMSO alone (0.1%) or treated with 100 μM each of the 16 vanadocenes (VDB, VDC, VMDC, VDI, VDA, VDCN, VDOCN, VDSCN, VDSeCN, VDT, VDCO, VDFe, VD(acac), VDH, VD(dpy), and VD(dtc) in 0.1% DMSO for 24 h. Cells were washed in PBS, fixed in 4% paraformaldehyde in PBS for 15 min on ice. Following two washings in PBS, they were permeabilized with 0.1% Triton X-100 in 0.1% sodium citrate for 2 min on ice, and washed twice in PBS. Labeling of exposed 3′-hydroxyl (3′-OH) ends of fragmented nuclear DNA was performed using TdT and fluorescein isothiocyanate (FITC)-conjugated dUTP according to the manufacturer's recommendations (Boehringer Mannheim, Indianapolis, Ind.). Cells were counterstained with 5 μg/ml PI. Control samples included: (i) untreated cells; (ii) cells incubated with the reaction mixture without the TdT enzyme. Cells were analyzed with a FACS Calibur flow cytometer (Becton Dickinson, Mountain View, Calif.). Relative DNA content (PI) was detected with band-pass filter 585/42, and dUTP incorporation (FITC) was detected with band-pass filter 530/30. Fluorescence was compensated for in the acquisition software using single-label control samples. Data were acquired in listmode, gated to 10,000 events per sample, and analyzed with the use of CELLQuest software program (Becton Dickinson). […] Vanadocene-induced apoptosis is shown by an increase in the number of cells staining with FITC-dUTP. The M1 and M2 gates were used to demarcate non-apoptotic and apoptotic PI-counterstained cell populations, respectively. TUNEL assays were performed using two testicular cell lines Tera-2 and Ntera-2 following exposure to each of the 16 vanadocenes. In other experiments, MC540 binding (as an early marker of apoptosis) and PI permeability (as a marker of advanced stage apoptosis) were simultaneously measured in human cancer cells 24 hours after exposure to vanadocenes, as previously described. Uckun, F. M., Narla, R. K., Jun, X., Zeren, T., Venkatachalam, T., Waddick, K. G., Rostostev, A., Myers, D. E. Cytotoxic activity of EGF-genstein against breast cancer cells. Clin. Cancer Res. 4:901–912, 1998. Vassilev, A., Ozer, Z., Navara, C., Mahajan, S., and Uckun, F. M. Bruton's tyrosine kinase as an inhibitor of the Fas/CD95 death-inducing signaling complex. J. Biol. Chem. 274:1646–56, 1999. Whole cells were analyzed using a FACStar Plus flow cytometer (Becton Dickinson, San Jose, Calif.). All analyses were done using 488 nm excitation from an argon laser. MC540 and PI emissions were split with a 600 nm short pass dichroic mirror and a 575 nm band pass filter was placed in front of one photomultiplier tube to measure MC540 emission and a 635 nm band pass filter was used for PI emission.
(In general: In flow cytometry, cells or beads pass a laser one at a time.)

Assay [2] has as its system Tera-2 testicular cancer cells. Briefly: MTT cytotoxicity assay of vanadocenes, TERA-2 cells. The conditions noted are these: 24 h, 1.9-250 μM. The procedure:
(§2) Human testicular cancer cell lines, Tera-2 (embryonal carcinoma) and Ntera-2 (pluripotent embryonal carcinoma) were obtained from the American Type Culture Collection (ATCC) (Rockeville, Md.) and propagated in T-25, T-75, or T-150 cm^2 tissue culture flasks (Corning Corp., Corning, N.Y.) in McCoy's 5A medium and Dulbecco's modified Eagle's medium respectively. Both media were supplemented with 10% fetal calf serum (FCS), 4 mM glutamine, 100 U/ml penicillin G, and […] streptomycin sulfate. All tissue culture reagents were obtained from Life Technologies Inc. (GIBCO-BRL), Gaithersburg, Md. Cell lines were cultivated for a minimum of two passages after thawing prior to experimentation. Other cell lines that were used in this study were the human B-lineage acute lymphoblastic leukemia (ALL) cell line NALM-6. Uckun, F. M., Evans, W. E., Forsyth, C. J., Waddick, K. G., Tuel-Ahlgren, L., Chelstrom, L. M., Burkhardt, A., Bolen, J., Myers, D. E. Biotherapy of B-cell precursor leukemia by targeting genistein to CD19-associated tyrosine kinase. Science (Washington DC) 267:886–91, 1995; T-lineage ALL cell line MOLT-3, Waurzyniak, B., Shneider, E. A., Tumer, N., Yanishevski, Y., Gunther, R., Chelstrom, L., Wendorf, H., Myers, D. E., Irvin, J. D., Messinger, Y., Ek, O., Zeren, T., Chandan-Langlie, M., Evans, W. E., Uckun, F. M. In vivo toxicity, pharmacokinetics, and antileukemic activity of TXU (anti-CD7)-pokeweed antiviral protein immunotoxin. Clinical Cancer Research 3:881–890, 1997; AML cell line HL-60, Perentesis, J. P., Waddick, K. G., Bendel, A. E., Shao, Y., Warman, B. E., Chandan-Langlie, M., and Uckun, F. M. Induction of apoptosis in multi-drug resistant andradiation-resistant acute myeloid leukemia cells by a recombinant fusion toxin directed against the granulocyte macrophage colony stimulating factor receptor. Clin. Cancer Res. 3:347–355, 1997; breast cancer cell lines MDA-MB-231 and BT-20, Uckun, F. M., Narla, R. K., Jun, X., Zeren, T., Venkatachalam, T., Waddick, K. G., Rostostev, A., Myers, D. E. Cytotoxic activity of EGF-genstein against breast cancer cells. Clin. Cancer Res. 4:901–912, 1998; glioblastoma cell lines U87 and U373, Narla, R. K., Liu, X., Myers, D. E., and Uckun, F. M. 4-(3′-Bromo-4′hydroxylphenyl)-amino-6,7-dimethoxyquinazoline (WHI-P154): A novel quinazoline derivative with potent cytotoxic activity against human glioblastoma cells. Clin. Cancer Res. 4:1405–1414, 1998.
(§3) MTT (3-[4,5-dimethyl thiazol-2-yl]-2,5-diphenyltetrazolium bromide)-based colorimetric assays were used for evaluation of the cytotoxicity of vanadocene compounds. Mosmann, T. Rapid colorimetric assay for cellular growth and survival: application to proliferation and cytotoxicity assays. J. Immunol. Methods, 65: 55–63, 1983. Briefly, cells were harvested with 0.125% (w/v) trypsin-0.02% EDTA (GIBCO-BRL) from exponential-phase maintenance cultures and centrifuged (300 g×5 min). After suspension and counting, cells were dispensed within triplicate 96-well tissue culture plates in 100 μl volumes. After 24 h incubation, the culture medium was discarded and replaced with 100 μl of fresh medium containing serial two-fold dilutions of drugs in medium to yield 1.9 μM to 250 μM. All compounds were reconstituted in DMSO to a concentration of 100 mM, and the stock solution was made fresh for each experiment. Control wells consisted of medium containing 0.25% of DMSO alone were used for solvent control. Culture plates were then incubated for 24 h before adding 10 μl of MTT solution (5 mg/ml in PBS) to each well. Wells containing only medium and MTT were used as controls for each plate. The tetrazolium/formazan reaction was allowed to proceed for 4 h at 37° C., and then 100 μl of the solubilization buffer (10% sodium dodecyl sulfate in 0.1% HCl) were added to all wells and mixed thoroughly to dissolve the dark blue formazan crystals. […]

Assay [3] deals with Ntera-2 testicular cancer cells. Briefly: MTT cytotoxicity assay of vanadocenes, NTERA-2 cells. The conditions noted are these: 24 h, 1.9-250 μM. The procedure: as §2, §3
In another assay the test system is U373 glioblastoma cells. In words: MTT cytotoxicity assay of vanadocenes, U373 cells. The conditions noted are these: 24 h. The procedure: as §2, §3
(In general: Tetrazolium assays rely on reduction of a dye to a coloured formazan, in cell work by metabolically active cells.)

Assay [4] deals with Tera-2 testicular cancer cells. In words: Flow cytometric TUNEL apoptosis assay, TERA-2 cells. The conditions noted are these: 24 h, TUNEL-positive nuclei. The procedure:
as §1

As to VCp2(NCS)2.0.5H2O [VDSCN], the “% Apoptosis at 100 μM NTERA-2” value in assay [1] is reported as 53 (46, 60) %. For the same compound, the IC50 in assay [2] is 23 µM; in assay [3] it was 17 µM; in the assay on U373 glioblastoma cells it was 19 µM. The “% Apoptosis at 100 μM TERA-2” value in assay [4] is given as 64 (58, 69) %.

As to V(MeCp)2Cl2.0.5 H2O [VMDC], the “% Apoptosis at 100 μM NTERA-2” value in assay [1] is listed as 13 (13, 14) %. Besides, the IC50 in assay [2] turned out to be 123 µM; in assay [3], 86 µM; with U373 glioblastoma cells it was 61 µM. In assay [4], the “% Apoptosis at 100 μM TERA-2” value is recorded as 45 (27, 61) %.

In the case of `[O-]c1ccccc1[O-].[V+2].c1cc[cH-]c1.c1cc[cH-]c1` [VD(cat), Cp2V(cat)], the “% Apoptosis at 100 μM NTERA-2” value in assay [1] was 12 (9, 15) %. The IC50 in assay [2] came to 79 µM; in assay [3] it was 93 µM.

Turning to VCp2(bpy)(O3SCF3)2 [VD(bpy)], in assay [1], the “% Apoptosis at 100 μM NTERA-2” value was 78 (77, 78) %. The IC50 in assay [2] came to 37 µM; in assay [3], 53 µM.

For the compound TiCp2Cl2 [TDC], the IC50 (in assay [2]; in assay [3]; with U373 glioblastoma cells) was greater than 250 µM in each case.

As to VCp2(H) [VDH], the “% Apoptosis at 100 μM NTERA-2” value in assay [1] was 20 ± 5 (N = 3) %. For the same compound, the IC50 in assay [2] is 118 µM; in assay [3] it was 125 µM; with U373 glioblastoma cells, greater than 250 µM. Also, in assay [4], the “% Apoptosis at 100 μM TERA-2” value is listed as 84 ± 2 (N = 3) %.

As to `O=S(=O)(O)C(F)(F)F.O=S(=O)(O)C(F)(F)F.[V+2].c1cc[cH-]c1.c1cc[cH-]c1` [VDT, VCp2(O3SCF3)2], the “% Apoptosis at 100 μM NTERA-2” value in assay [1] is on record as 55 ± 26 (N = 4) %. For the same compound, the IC50 came out at 76 µM in assay [2] and 137 µM in assay [3]. For the same compound, the “% Apoptosis at 100 μM TERA-2” value in assay [4] is reported as 71 (71, 71) %.

Turning to VCp2(NCO)2 [VDOCN], the “% Apoptosis at 100 μM NTERA-2” value in assay [1] is 95 (94, 96) %. Further, the IC50 stood at 31 µM in assay [2] and 63 µM in assay [3]. In addition, in assay [4], the “% Apoptosis at 100 μM TERA-2” value is 85 (80, 90) %.

Take ZrCp2Cl2 [ZDC]: the IC50 (in assay [2]; in assay [3]; in the assay on U373 glioblastoma cells) was greater than 250 µM each time.

With VCp2(dtc) [VD(dtc)], in assay [1], the “% Apoptosis at 100 μM NTERA-2” value is 67 ± 13 (N = 3) %. In addition, the IC50 was found to be 60 µM in assay [2], 83 µM in assay [3] and 7 µM in the assay on U373 glioblastoma cells. Moreover, in assay [4], the “% Apoptosis at 100 μM TERA-2” value is listed as 83 (82, 84) %.

Turning to `Cc1c(C)c(C)[c-](C)c1C.Cc1c(C)c(C)[c-](C)c1C.[Cl-].[Cl-].[V+2]` [VPMDC, V(Me5Cp)2Cl2], the “% Apoptosis at 100 μM NTERA-2” value in assay [1] was 34 (33, 35) %. The 50% inhibitory concentration (IC50) in assay [2] was 127 µM; in assay [3], 44 µM; in the assay on U373 glioblastoma cells it was 172 µM. The “% Apoptosis at 100 μM TERA-2” value in assay [4] is listed as 35 (35, 36) %.

Consider V(Me5Cp)OCl [VPMOC], for which, in assay [1], the “% Apoptosis at 100 μM NTERA-2” value was 6 (6, 7) %. In addition, the IC50 in assay [2] is greater than 250 µM; in assay [3], 77 µM. Moreover, in assay [4], the “% Apoptosis at 100 μM TERA-2” value is listed as 5 (5, 6) %.

Take `CC#N.[Cl-].[Cl-].[Cl-].[Cl-].[Cl-].[Fe+3].[V+4].c1cc[cH-]c1.c1cc[cH-]c1` [VDFe, VCp2Cl (CH3CN)(FeCl4)]: in assay [1], the “% Apoptosis at 100 μM NTERA-2” value was 87 (81, 94) %. Also, the IC50 in assay [2] came out at 100 µM; in assay [3], 113 µM. Further, in assay [4], the “% Apoptosis at 100 μM TERA-2” value is 85 (84, 87) %.

Take `CC(=O)[CH-]C(C)=O.O=S(=O)([O-])C(F)(F)F.[V+4].c1cc[cH-]c1.c1cc[cH-]c1` [VD(acac), VCp2(acac)(O3SCF3)]: in assay [1], the “% Apoptosis at 100 μM NTERA-2” value is on record as 48 ± 13 (N = 3) %. For the same compound, the IC50 in assay [2] worked out at 64 µM; in assay [3], 75 µM. The “% Apoptosis at 100 μM TERA-2” value in assay [4] worked out at 72 ± 17%.

As to HfCp2Cl2 [HDC], the IC50 (in assay [2]; in assay [3]; in the assay with U373 glioblastoma cells) was greater than 250 µM each time.

Consider MoCp2Cl2 [MDC], for which the IC50 (in assay [2]; in assay [3]; in the assay with U373 glioblastoma cells) was greater than 250 µM each time.

Consider VCp2(PH) [VDPH], for which the “% Apoptosis at 100 μM NTERA-2” value in assay [1] is listed as 90 ± 3 (N = 4) %. Further, the results for the IC50 in assay [2] and in assay [3] were greater than 250 µM and 61 µM, respectively. Also, in assay [4], the “% Apoptosis at 100 μM TERA-2” value is on record as 88 ± 3 (N = 3) %.

With `[Cl-].[N-]=C=O.[V+2].c1cc[cH-]c1.c1cc[cH-]c1` [VDCO, VCp2(NCO)Cl], in assay [1], the “% Apoptosis at 100 μM NTERA-2” value was 98 (97, 99) %. Besides, the IC50 in assay [2] was determined as 50 µM; in assay [3], 90 µM. Moreover, the “% Apoptosis at 100 μM TERA-2” value in assay [4] is listed as 73 (67, 78) %.
